Measured values taken from US20100310591A1 (priority 2009, published 2010).
Values joined by “and” are separate entries in the source; they are usually repeats but may differ in a detail not shown here. Equal entries are not always repeated. Where two headings read alike, the source gives them in different places. Non-standard residues stand in square brackets, D forms with d. Ava = NCCCCC(=O)O

How the values were obtained:
[1] = system: CD4+ T cells (CD8+ depleted PBMC of rHA-responsive donors); assay type: cell-based, human
[2] = system: TPc9.1 T hybridoma with CH27 antigen presenting cells; experiment: T hybridoma response assay (APC + T hybridoma, HT-2 [3H]TdR uptake readout); assay type: cell-based, murine; settings: for EC50: serial 1:4 dilutions from 3 μM, 24 hr stimulation
Experimental: Biological Activities of Hybrid Peptides [00103) The biological activities of the series of peptides listed in Table I were determined with the T hybridoma response assay. A T cell hybridoma which is specific to the hornworm moth cytochrome C epitope IAYLKQATAK (SEQ ID NO: 8) was stimulated with that antigenic peptide or with members of the series of hybrids of the antigenic peptide and the core Ii-Key sequence listed in Table I. The hybrids were joined with spacers of various lengths. The spacers contained either amino acids in the natural sequence of the Ii protein, or methylene (—CH2—) groups of 5-amino-n-valeric acid (ava; 5-aminopentanoic acid). Cultures of an antigen presenting cell and T cell hybridoma were incubated with serial 1:4 dilutions of the antigenic peptide, from 3 μM. Response was determined by measuring tritiated thymidine uptake by an HT-2 culture to which supernatants of the antigenic stimulation culture (24 hr stimulation period) had been transferred (see, Table 2). The endpoint for half maximal response to Hybrid 1, the antigenic peptide, was about 20 nM. The endpoint for half maximal stimulation with Hybrids 5 and 2 was about 50 pM.
For this assay the following components were added at the same time of the primary culture: (a) The hybrid peptide containing the antigenic epitope (Table I); (b) mitomycin C-treated, MHC class II-positive antigen presenting cells (APC) with the MHC class II allele required for binding of the specific antigenic peptide and its presentation to the antigenic peptide-specific T cell hybridoma; (c) MHC class II allele-restricted T cell hybridoma specific for the antigenic peptide and the MHC class II allele restricting its presentation. At the end of the incubation of this primary culture, an aliquot of its supernatant was transferred into a second culture well for incubation with an interleukin-dependent lymphoblastoid cell line. The degree of stimulation of that second indicator cell by the interleukins which had been released from the activated T cell hybridoma in the primary culture was measured by quantitating tritiated thymidine deoxyribose {[^3H]TdR} uptake into the DNA of the HT-2 indicator cells of that second culture.
The hybrids between Ii-Key core sequence LRMK (SEQ ID NO: 3) and PGCC95-104, pigeon cytochrome C 95-104, IAYLKQATAK (SEQ ID NO: 8) are presented by E^k. The peptides were dissolved in phosphate-buffered saline (PBS; 0.01 M sodium phosphate buffer, pH 7.2, 0.1 M NaCl). The solutions were sterilized by filtration. The TPc9.1 T hybridoma is specific for pigeon cytochrome C 81-104 peptide presented on the murine class II MHC allele E^k. The CH27 B cell lymphoma line which expresses H-2^k alleles was used as the antigen presenting cell.
Antigenic peptide-specific T cell activation was measured by the following procedure. Mitomycin C-treated CH27 cells (A^kE^k) APC were generated by incubating 5.×10^6 cells/mL for 20 min at 37° C. with 0.025 mg/mL of mitomycin C (Sigma) in Dulbecco's Modified Eagle's Medium (DMEM)/10 mM N-2 (hydroxyethylpiperazine-N′[2-ethanesulfonic acid] (HEPES), followed by two washes with four volumes of DMEM-5% fetal calf serum (FCS), 10 mM HEPES. T cell hybridomas were irradiated 2200 rads before each assay.
For the primary culture assay, 5×10^4 mitomycin C-treated APC, 5×10^4 T hybridoma cells and serial 1:4 dilutions from 3 uM of the peptides containing antigenic epitopes were cultured at pH 7.2-7.4, in complete DMEM-5% FCS, 10 mM HEPES, 1× nonessential amino acids (Sigma), 1 mM sodium pyruvate, 2 mM L-glutamine. 100 U/mL penicillin G, 100 μg/mL streptomycin sulfate, 5×10^−5 M 2-mercaptoethanol (2-ME). Wells containing only T hybridoma cells (T)+APC were included to monitor for background T cell activation; and wells containing T+APC+antigenic peptide were included to monitor for non-specific T hybridoma activation by each AE101 series peptide. […]

[3] = read-out: endpoint for half maximal stimulation

| Substance | in vitro CD4 response, fold above background [1] | immunological response to the antigenic epitope (T cell proliferative response) ([2]; Conc. 0.01 nM) | immunological response to the antigenic epitope (T cell proliferative response) ([2]; Conc. 0.05 nM) | immunological response to the antigenic epitope (T cell proliferative response) ([2]; Conc. 0.18 nM) | immunological response to the antigenic epitope (T cell proliferative response) ([2]; Conc. 0.73 nM) | immunological response to the antigenic epitope (T cell proliferative response) ([2]; Conc. 3 nM) | immunological response to the antigenic epitope (T cell proliferative response) ([2]; Conc. 12 nM) | immunological response to the antigenic epitope (T cell proliferative response) ([2]; Conc. 47 nM) | immunological response to the antigenic epitope (T cell proliferative response) ([2]; Conc. 188 nM) | immunological response to the antigenic epitope (T cell proliferative response) ([2]; Conc. 750 nM) | immunological response to the antigenic epitope (T cell proliferative response) ([2]; Conc. 3000 nM) | EC50 ([2]; read-out: endpoint for half maximal response) | recognition frequency among donors [1] | activity of hybrid (in words) [2] | EC50 [2, 3] |
| --- | --- | --- | --- | --- | --- | --- | --- | --- | --- | --- | --- | --- | --- | --- | --- |
| NHFEKIQIIPKSSWSSH [BEI 22] | 4.6 fold above background |  |  |  |  |  |  |  |  |  |  |  |  |  |  |
| IAYLKQATAK [Hybrid 1, Ac-IAYLKQATAK—NH2 (SEQ ID NO: 8), reference compound] |  | 0 thousands of counts per minute | 0 thousands of counts per minute | 0 thousands of counts per minute | 4 thousands of counts per minute | 0.4 thousands of counts per minute | 10.9 thousands of counts per minute | 29.5 thousands of counts per minute | 32.4 thousands of counts per minute | 27.8 thousands of counts per minute | 25.2 thousands of counts per minute | ~20 nM |  |  |  |
| YQNPTTYISVGTSTLNQ [BEI 36] |  |  |  |  |  |  |  |  |  |  |  |  | 21% |  |  |
| Ac-LRMK (SEQ ID NO: 3)-5-aminopentanoyl-5-aminopentanoyl-IAYLKQATAK (SEQ ID NO: 8)-NH2 (Ac-LRMK[Ava][Ava]IAYLKQATAK-NH2; SMILES CC[C@H](C)[C@H](NC(=O)CCCCNC(=O)CCCCNC(=O)[C@H](CCCCN)NC(=O)[C@H](CCSC)NC(=O)[C@H](CCCNC(=N)N)NC(=O)[C@H](CC(C)C)NC(C)=O)C(=O)N[C@@H](C)C(=O)N[C@@H](Cc1ccc(O)cc1)C(=O)N[C@@H](CC(C)C)C(=O)N[C@@H](CCCCN)C(=O)N[C@@H](CCC(N)=O)C(=O)N[C@@H](C)C(=O)N[C@H](C(=O)N[C@@H](C)C(=O)N[C@@H](CCCCN)C(N)=O)[C@@H](C)O) [Hybrid 3] |  | 0.6 thousands of counts per minute | 5.3 thousands of counts per minute | 21.6 thousands of counts per minute | 22.3 thousands of counts per minute | 27.9 thousands of counts per minute | 29.5 thousands of counts per minute | 26.2 thousands of counts per minute | 26.2 thousands of counts per minute | 31.7 thousands of counts per minute | 31.9 thousands of counts per minute |  |  | comparable to those with the natural sequence of Ii protein |  |
| IGECPKYVKSNRLVLAT [BEI 54] | 3.9 fold above background and 3.8 fold above background |  |  |  |  |  |  |  |  |  |  |  |  |  |  |
| WLIKKNSTYPTILRSYN [BEI 29] | 3.6 fold above background |  |  |  |  |  |  |  |  |  |  |  |  |  |  |
| LRMKLPKSAKPIAYLKQATAK [Hybrid 5] |  | 14.3 thousands of counts per minute | 21.3 thousands of counts per minute | 36.7 thousands of counts per minute | 30.1 thousands of counts per minute | 31.4 thousands of counts per minute | 44.6 thousands of counts per minute | 26.2 thousands of counts per minute | 29.1 thousands of counts per minute | 27.5 thousands of counts per minute | 27.3 thousands of counts per minute |  |  |  | ~0.05 nM |
| Ac-LRMKLPKSIAYLKQATAK-NH2 (SEQ ID NO: 9) [Hybrid 4] |  | 2.5 thousands of counts per minute | 5.8 thousands of counts per minute | 9.1 thousands of counts per minute | 19.2 thousands of counts per minute | 19.0 thousands of counts per minute | 23.1 thousands of counts per minute | 19.5 thousands of counts per minute | 20.8 thousands of counts per minute | 23.3 thousands of counts per minute | 25.2 thousands of counts per minute |  |  |  |  |
| Ac-LRMKLPKSAKPVSKIAYLKQATAK-NH2 (SEQ ID NO: 11) [Hybrid 6] |  | 2.9 thousands of counts per minute | 2.4 thousands of counts per minute | 11.9 thousands of counts per minute | 28.7 thousands of counts per minute | 31.4 thousands of counts per minute | 39.2 thousands of counts per minute | 25.3 thousands of counts per minute | 26.9 thousands of counts per minute | 23.4 thousands of counts per minute | 21.5 thousands of counts per minute |  |  | sub-optimal activity |  |
| Ac-LRMK (SEQ ID NO: 3)-5-aminopentanoyl-IAYLKQATAK (SEQ ID NO: 8)-NH2 (Ac-LRMK[Ava]IAYLKQATAK-NH2; SMILES CC[C@H](C)[C@H](NC(=O)CCCCNC(=O)[C@H](CCCCN)NC(=O)[C@H](CCSC)NC(=O)[C@H](CCCNC(=N)N)NC(=O)[C@H](CC(C)C)NC(C)=O)C(=O)N[C@@H](C)C(=O)N[C@@H](Cc1ccc(O)cc1)C(=O)N[C@@H](CC(C)C)C(=O)N[C@@H](CCCCN)C(=O)N[C@@H](CCC(N)=O)C(=O)N[C@@H](C)C(=O)N[C@H](C(=O)N[C@@H](C)C(=O)N[C@@H](CCCCN)C(N)=O)[C@@H](C)O) [Hybrid 2] |  | 3.4 thousands of counts per minute | 19.8 thousands of counts per minute | 31.2 thousands of counts per minute | 38.8 thousands of counts per minute | 30.1 thousands of counts per minute | 21.9 thousands of counts per minute | 20.8 thousands of counts per minute | 27.2 thousands of counts per minute | 23.9 thousands of counts per minute | 25.1 thousands of counts per minute |  |  | comparable to those with the natural sequence of Ii protein | ~0.05 nM |
